Measurements from US20230241226A1, “COMPOUNDS FOR TARGETED DEGRADATION OF CARRIER PROTEINS AND USES THEREOF” (CeMM - Forschungszentrum für Molekulare Medizin GmbH, priority 2019, published 2023).

Legend:
dTAG-HA SLC39A7 = target: T1, dTAG-HA SLC39A7 (Homo sapiens, UniProt Q92504+Q96SW2); assay: Targeted degradation of dTAG-tagged SLC39A7 (western blot); type: cell-based; settings: HAP1, 0.5 µM, 24, 48 or 72 hours
T1 construct: expressed in transfected cells
Protocol: (C)HAP1 cells expressing dTAG-HA SLC1A5, 2A3, 30A9, 35B2, MTCH2, and 33A1 were treated for 24 hours with 0.5 µM of dTAG7 or dTAG13, as indicated. HAP1 cells expressing dTAG-HA SLC2A1 and 16A1 were treated for 24 hrs with 0.5 µM of dTAG7. HAP1 cell lines expressing dTAG-HA SLC39A7, dTAG-HA SLC4A4, and SLC7A3-dTAG-HA were treated for 48 hrs with 0.5 µM of dTAG13.
SLC1A5, SLC2A1, SLC2A3, SLC16A1, SLC38A1, SLC38A2 were obtained as gateway-compatible pENTR/pDONR vectors from the Harvard PlasmID Repository. SLC39A7 was obtained from Dharmacon, GE Healthcare. The following vectors were synthesized by Genescript: SLC4A4, SLC7A3, SLC38A9, SLC25A1, SLC9A1, SLC9A2, SLC9A3, SLC9A4, SLC9A5, SLC9A6, SLC9A7, SLC9A8, and SLC9B2. […]
For immunoblotting, whole cell extracts were prepared using RIPA lysis buffer (25 mM Tris/HCl pH 7.6, 150 mM NaCl, 1% NP-40, 1% sodium deoxycholate, 0.1% SDS, EDTA-free protease inhibitor (Roche) and phosphatase inhibitors 2+3 (Sigma- Aldrich)). […] Protein extracts were quantified and normalized using the BCA assay (Thermo Scientific). […]
SLCs were ectopically expressed as fusions to a mutated FKBP domain, also known as the dTAG system. […]

SLC9A1 = target: T2, SLC9A1 (Homo sapiens, UniProt P19634); assay: Degradation of endogenous SLC9A1 (immunoblot); type: cell-based
T2 construct: endogenous in cells; host or cells: HAP1, KBM7 (WT and CRBN knockout)
T2 sequence (P19634 whole entry): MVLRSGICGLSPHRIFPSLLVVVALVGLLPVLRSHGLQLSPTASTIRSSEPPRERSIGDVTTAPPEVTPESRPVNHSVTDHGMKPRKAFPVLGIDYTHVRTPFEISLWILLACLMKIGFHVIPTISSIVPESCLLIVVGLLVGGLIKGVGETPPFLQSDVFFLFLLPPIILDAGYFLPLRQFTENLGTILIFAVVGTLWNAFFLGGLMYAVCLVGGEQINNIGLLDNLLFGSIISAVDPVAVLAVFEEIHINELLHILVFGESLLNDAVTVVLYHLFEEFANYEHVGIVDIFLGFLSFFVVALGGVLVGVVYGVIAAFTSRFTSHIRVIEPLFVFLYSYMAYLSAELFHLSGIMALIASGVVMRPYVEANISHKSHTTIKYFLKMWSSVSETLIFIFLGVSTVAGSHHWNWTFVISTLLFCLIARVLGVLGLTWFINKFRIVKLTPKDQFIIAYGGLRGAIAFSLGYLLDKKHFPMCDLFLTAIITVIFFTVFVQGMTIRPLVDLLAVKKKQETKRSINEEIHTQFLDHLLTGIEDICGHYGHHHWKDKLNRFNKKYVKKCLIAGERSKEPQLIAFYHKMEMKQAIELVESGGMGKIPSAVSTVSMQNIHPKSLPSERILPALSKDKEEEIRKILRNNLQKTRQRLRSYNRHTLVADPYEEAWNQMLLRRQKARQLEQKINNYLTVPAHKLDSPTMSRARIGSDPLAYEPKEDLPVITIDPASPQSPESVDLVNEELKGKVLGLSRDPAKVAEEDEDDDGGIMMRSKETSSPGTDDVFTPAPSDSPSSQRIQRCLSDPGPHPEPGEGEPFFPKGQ
Protocol: (B) HAP1 and KBM7 cells were treated with different concentrations of d9A1-2.
(C)Both WT and CRBN knockout KBM7 cell lines were treated with 1 µM d9A1-2 for 16 hours.
(D) Chemical “rescue” of d9A1-2 driven degradation. WT KBM7 cell lines were treated with 0.5 µM d9A1-2 for 16 hours. These cells were also treated with bortezomib (bort. 0.25 µM), MG-132 (MG, 1 µM), MLN4924 (MLN,1 µM), pomalidomide (poma., 1 µM), or bafilomycin A1 (bafi., 10 µM). All molecules, apart from bafilomycin, could rescue SLC9A1 from degradation.
(B) HAP1 cells were treated with a dose curve of the warhead, d9A1-1, d9A1-2, d9A1-3, d9A1-4, for 24 hours.
(C) KBM7 cells were treated with varying concentrations of d9A1-2.
HEK293T, LS180 were obtained from ATCC (Manassas, VA, USA), HAP1 WT, HAP1 -/-SLC38A2 (HZGHC001975c003), HAP1 -/-SLC38A9 (HZGHC000777c011) were obtained from Horizon Genomics. Other cell lines utilized here: CAKI (a gift of Georg Winter’s lab), SW620, SW480 (both a gift from Walter Berger’s lab, Medical University Vienna), LOVO, HCT15 (both a gift from Chris Gasche), KBM7 (a gift from Thijn Brummelkamp’s lab), KBM7 -/- CRBN was described in Mayor-Ruiz et al. Cells were cultured, according to the ATCC recommendation in DMEM, RPMI or IMDM medium (Gibco) supplemented with 10% (v/v) FBS and antibiotics (100 U/ml penicillin and […] streptomycin). Knock-in single cell clones of dTAG-HA SLC38A2 HAP1 cell line were generated as previously described. For starvation, culture media was replaced with media without amino acids or FBS.
For immunoblotting, whole cell extracts were prepared using RIPA lysis buffer (25 mM Tris/HCl pH 7.6, 150 mM NaCl, 1% NP-40, 1% sodium deoxycholate, 0.1% SDS, EDTA-free protease inhibitor (Roche) and phosphatase inhibitors 2+3 (Sigma- Aldrich)). Cell extracts were incubated for 15 min on ice in 50 µL RIPA buffer. Lysates were cleared by centrifugation (20,000 g, 10 min, 4° C.). Protein extracts were quantified and normalized using the BCA assay (Thermo Scientific). Where indicated, cleared lysates where treated with the enzyme PNGase (NEB) to deglycosylate the proteins. Lämmli Sample Buffer 4x was added to protein extract samples without boiling. Cell lysates were run on SDS-polyacrylamide gel in tris-glycine running buffer and transferred to nitrocellulose membranes Amersham Protran 0.45 µm (GE Healthcare), according to standard methods. The membranes were incubated with the antibodies indicated below and visualized with horseradish peroxidase-conjugated secondary antibodies (described below) using the ECL Western blotting system (Thermo Scientific). The following antibodies were used: GAPDH (Santa Cruz, sc-365062), Actin (Cyoskeleton Inc., #AAN01), HA (Covance, cat #MMS-101R), HA (Cell Signaling, #3724), HA7-HRP (Sigma, H6533), HA (Roche, #11867423001), SLC9A1 (Santa Cruz, sc-136239), SLC2A1 (Cell Signaling, #12939), SLC38A1 (Cell Signaling, #36057). Secondary antibody for imaging goat anti-Rat IgG Alexa Fluor 488 (ThermoFisher, A11006). The following secondary antibodies were used for immunoblotting: goat anti-mouse HRP (115-035-003, Jackson ImmunoResearch) and goat anti-rabbit HRP (111-035-003, Jackson ImmunoResearch).
MG132, Bortezomib, Pomalidomide were obtained from Selleckchem. MLN4924 was obtained from MedchemExpress. Bafilomycin was obtained from Enzo Life Sciences. dTAG13 was a generous gift from the Nathanael Gray laboratory, Dana Farber Cancer Institute. The d9A1 degrader series (warhead, d9A1-1 to d9A1-4) was synthesized by Wuxi AppTec. All chemicals were dissolved in DMSO (Sigma-Aldrich) and utilized at the concertation described in respective figures.

T1 sequence (Q92504 with tags, fused parts or gaps): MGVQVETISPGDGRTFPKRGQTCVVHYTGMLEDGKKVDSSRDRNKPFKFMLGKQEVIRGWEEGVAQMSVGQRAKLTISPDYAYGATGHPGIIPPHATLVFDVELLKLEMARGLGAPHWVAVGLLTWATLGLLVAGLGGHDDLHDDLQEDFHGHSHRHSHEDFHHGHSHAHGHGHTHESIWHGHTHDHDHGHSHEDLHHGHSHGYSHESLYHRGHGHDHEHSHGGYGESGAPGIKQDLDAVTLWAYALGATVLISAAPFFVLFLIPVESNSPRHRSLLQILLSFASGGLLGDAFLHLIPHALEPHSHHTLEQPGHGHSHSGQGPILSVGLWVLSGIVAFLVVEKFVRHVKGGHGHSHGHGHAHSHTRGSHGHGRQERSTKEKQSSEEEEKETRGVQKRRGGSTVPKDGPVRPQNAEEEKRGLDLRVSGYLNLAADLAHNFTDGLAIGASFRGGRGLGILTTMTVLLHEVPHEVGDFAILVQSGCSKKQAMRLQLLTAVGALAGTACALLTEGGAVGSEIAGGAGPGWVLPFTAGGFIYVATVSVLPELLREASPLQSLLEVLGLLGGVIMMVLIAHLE
T1 sequence (Q96SW2 whole entry): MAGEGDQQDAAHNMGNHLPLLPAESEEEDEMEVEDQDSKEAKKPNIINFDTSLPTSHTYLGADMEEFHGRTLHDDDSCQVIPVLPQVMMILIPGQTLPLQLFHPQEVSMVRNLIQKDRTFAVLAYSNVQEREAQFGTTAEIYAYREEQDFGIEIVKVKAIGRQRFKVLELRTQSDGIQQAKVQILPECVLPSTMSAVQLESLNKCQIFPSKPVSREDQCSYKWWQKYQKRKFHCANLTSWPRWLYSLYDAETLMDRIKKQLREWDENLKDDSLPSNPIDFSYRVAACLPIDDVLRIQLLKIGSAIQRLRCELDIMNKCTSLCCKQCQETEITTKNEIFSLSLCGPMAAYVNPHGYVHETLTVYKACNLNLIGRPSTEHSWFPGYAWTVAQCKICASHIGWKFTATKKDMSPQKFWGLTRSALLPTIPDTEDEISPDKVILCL
T1 sequence (Q16531 whole entry partner): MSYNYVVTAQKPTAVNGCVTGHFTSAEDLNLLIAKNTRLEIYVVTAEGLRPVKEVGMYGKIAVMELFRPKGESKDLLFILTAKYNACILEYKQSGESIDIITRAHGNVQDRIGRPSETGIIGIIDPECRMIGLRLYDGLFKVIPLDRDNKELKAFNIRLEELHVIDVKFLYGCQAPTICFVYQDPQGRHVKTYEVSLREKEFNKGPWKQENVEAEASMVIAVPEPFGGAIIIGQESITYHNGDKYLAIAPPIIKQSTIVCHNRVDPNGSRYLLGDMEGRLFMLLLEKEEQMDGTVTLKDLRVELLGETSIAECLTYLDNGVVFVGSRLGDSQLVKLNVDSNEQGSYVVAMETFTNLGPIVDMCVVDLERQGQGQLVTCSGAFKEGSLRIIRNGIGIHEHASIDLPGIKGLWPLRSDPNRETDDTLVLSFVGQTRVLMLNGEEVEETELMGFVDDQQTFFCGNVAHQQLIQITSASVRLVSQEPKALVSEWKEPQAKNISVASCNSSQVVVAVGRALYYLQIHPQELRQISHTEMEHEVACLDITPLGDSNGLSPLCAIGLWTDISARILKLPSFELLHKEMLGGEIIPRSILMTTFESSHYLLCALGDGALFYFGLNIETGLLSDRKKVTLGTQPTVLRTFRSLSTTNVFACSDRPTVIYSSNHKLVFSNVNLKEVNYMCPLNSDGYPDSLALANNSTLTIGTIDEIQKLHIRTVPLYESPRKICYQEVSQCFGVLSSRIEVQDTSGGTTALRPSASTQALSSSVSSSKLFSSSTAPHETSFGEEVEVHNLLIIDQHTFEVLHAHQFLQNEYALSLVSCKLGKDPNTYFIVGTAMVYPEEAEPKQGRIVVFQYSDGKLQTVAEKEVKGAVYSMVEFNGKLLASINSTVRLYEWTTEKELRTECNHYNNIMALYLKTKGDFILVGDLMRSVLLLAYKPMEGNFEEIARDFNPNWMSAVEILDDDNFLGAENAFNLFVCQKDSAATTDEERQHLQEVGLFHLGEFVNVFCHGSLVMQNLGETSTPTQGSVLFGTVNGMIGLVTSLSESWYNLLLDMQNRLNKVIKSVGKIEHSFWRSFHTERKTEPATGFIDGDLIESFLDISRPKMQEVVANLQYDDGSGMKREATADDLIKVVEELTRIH

Row | reversibility of degradation of the target SLC (dTAG-HA SLC39A7) | time within which degradation of SLC9A1 was observed (SLC9A1; HAP1 and KBM7 cells, different concentrations) [h] | SLC9A1 degradation, dose curve (SLC9A1; HAP1 cells, 24 hours) | SLC9A1 degradation in WT and CRBN knockout cells (SLC9A1; KBM7 WT and CRBN knockout, 1 µM, 16 hours) | Structure (SMILES) | degradation of endogenous SLC9A1 (SLC9A1; HAP1 and KBM7 cells) | SLC9A1 expression, time course (SLC9A1; KBM7 cells, varying concentrations, 5, 7, 9 or 12 hours)
1 | reversible degradation | – | – | – | CC[C@H](C(=O)N1CCCC[C@H]1C(=O)O[C@H](CCc1ccc(OC)c(OC)c1)c1ccccc1OCC(=O)NCCCOCCOCCOCCCNC(=O)COc1cccc2c1C(=O)N(C1CCC(=O)NC1=O)C2=O)c1cc(OC)c(OC)c(OC)c1 (stereo partly drawn) [dTAG7] | – | –
2 | – | ≤ 8 | most effective | observed in WT but not CRBN knockout | Cc1cc(-c2ccc(C(=O)NCCOCCOCCOCCOCCNc3cccc4c3C(=O)N(C3CCC(=O)NC3=O)C4=O)cc2N2CCC(c3[nH]cnc3C)CC2)ccc1F (stereo not drawn) [d9A1-2] | degradation of endogenous SLC9A1 at sub-micromolar concentration | Reduction of SLC9A1 expression was observed
